Converted amounts (≈) assume the structure as drawn.
Experiments:
Format in all cases: functional
Staphylococcus aureus [1] = assay: Antibacterial activity against Staphylococcus aureus ATCC 25923 by broth microdilution technique
Staphylococcus aureus [2] = assay: Antibacterial activity against multidrug resistant Staphylococcus aureus clinical isolate by broth microdilution technique
[3] = tested on: Staphylococcus epidermidis; assay: Antibacterial activity against Staphylococcus epidermidis ATCC 12228 by broth microdilution technique
Enterococcus faecalis = assay: Antibacterial activity against Enterococcus faecalis ATCC 29212 by broth microdilution technique
Escherichia coli = assay: Antibacterial activity against Escherichia coli by broth microdilution technique
Pseudomonas aeruginosa [4] = assay: Antibacterial activity against Pseudomonas aeruginosa by broth microdilution technique
Pseudomonas aeruginosa [5] = assay: Antibacterial activity against multidrug resistant Pseudomonas aeruginosa clinical isolate by broth microdilution technique
[6] = tested on: Staphylococcus epidermidis; assay: Selectivity ratio of MIC of ciprofloxacin to MIC of compound for Staphylococcus epidermidis ATCC 12228

SMILES	MIC (Staphylococcus aureus [1]) [µg/mL]	MIC (Staphylococcus aureus [2]) [µg/mL]	MIC [3] [µg/mL]	MIC (Enterococcus faecalis) [µg/mL]	MIC (Escherichia coli) [µg/mL]	MIC (Pseudomonas aeruginosa [4]) [µg/mL]	MIC (Pseudomonas aeruginosa [5]) [µg/mL]	Ratio [6]
O=C(O)c1cn(C2CC2)c2nc(N3CCC(n4cc(-c5ccccc5)nn4)CC3)c(F)cc2c1=O	0.5 (≈ 1.05 µM)	0.5 (≈ 1.05 µM)	0.5 (≈ 1.05 µM)	1 (≈ 2.11 µM)	32 (≈ 67.4 µM)	> 32	–	–
O=C(O)c1cn(C2CC2)c2nc(N3CCC(n4cc(/C=N/O)nn4)CC3)c(F)cc2c1=O	1 (≈ 2.27 µM)	> 32	1 (≈ 2.27 µM)	4 (≈ 9.06 µM)	2 (≈ 4.53 µM)	32 (≈ 72.5 µM)	32 (≈ 72.5 µM)	–
O=C(O)c1cn(C2CC2)c2nc(N3CCC(n4cc(CO)nn4)CC3)c(F)cc2c1=O	0.125 (≈ 0.292 µM)	> 32	0.5 (≈ 1.17 µM)	2 (≈ 4.67 µM)	0.5 (≈ 1.17 µM)	32 (≈ 74.7 µM)	32 (≈ 74.7 µM)	–
NCc1cn(C2CCN(c3nc4c(cc3F)c(=O)c(C(=O)O)cn4C3CC3)CC2)nn1	16 (≈ 37.4 µM)	> 32	32 (≈ 74.9 µM)	> 32	16 (≈ 37.4 µM)	32 (≈ 74.9 µM)	32 (≈ 74.9 µM)	–
COC(=O)c1cn(C2CCN(c3nc4c(cc3F)c(=O)c(C(=O)O)cn4C3CC3)CC2)nn1	1 (≈ 2.19 µM)	> 32	1 (≈ 2.19 µM)	16 (≈ 35.1 µM)	1 (≈ 2.19 µM)	32 (≈ 70.1 µM)	32 (≈ 70.1 µM)	–
NC(=O)c1cn(C2CCN(c3nc4c(cc3F)c(=O)c(C(=O)O)cn4C3CC3)CC2)nn1	1 (≈ 2.27 µM)	> 32	2 (≈ 4.53 µM)	4 (≈ 9.06 µM)	4 (≈ 9.06 µM)	32 (≈ 72.5 µM)	32 (≈ 72.5 µM)	–
O=C(O)c1cn(C2CC2)c2nc(N3CCC(n4cc(/C=N/OCc5ccccc5)nn4)CC3)c(F)cc2c1=O	1 (≈ 1.88 µM)	4 (≈ 7.53 µM)	1 (≈ 1.88 µM)	4 (≈ 7.53 µM)	8 (≈ 15.1 µM)	32 (≈ 60.2 µM)	32 (≈ 60.2 µM)	–
O=Cc1cn(C2CCN(c3nc4c(cc3F)c(=O)c(C(=O)O)cn4C3CC3)CC2)nn1	0.125 (≈ 0.293 µM)	> 32	0.031 (≈ 0.0727 µM)	2 (≈ 4.69 µM)	0.25 (≈ 0.586 µM)	16 (≈ 37.5 µM)	32 (≈ 75 µM)	16
CC(O)c1cn(C2CCN(c3nc4c(cc3F)c(=O)c(C(=O)O)cn4C3CC3)CC2)nn1 (stereo unspecified)	2 (≈ 4.52 µM)	> 32	2 (≈ 4.52 µM)	8 (≈ 18.1 µM)	1 (≈ 2.26 µM)	32 (≈ 72.3 µM)	32 (≈ 72.3 µM)	–
CO/N=C/c1cn(C2CCN(c3nc4c(cc3F)c(=O)c(C(=O)O)cn4C3CC3)CC2)nn1	0.25 (≈ 0.549 µM)	> 32	0.5 (≈ 1.1 µM)	4 (≈ 8.78 µM)	2 (≈ 4.39 µM)	32 (≈ 70.3 µM)	32 (≈ 70.3 µM)	–
CCO/N=C/c1cn(C2CCN(c3nc4c(cc3F)c(=O)c(C(=O)O)cn4C3CC3)CC2)nn1	0.5 (≈ 1.07 µM)	32 (≈ 68.2 µM)	1 (≈ 2.13 µM)	4 (≈ 8.52 µM)	4 (≈ 8.52 µM)	32 (≈ 68.2 µM)	32 (≈ 68.2 µM)	–
C=CCO/N=C/c1cn(C2CCN(c3nc4c(cc3F)c(=O)c(C(=O)O)cn4C3CC3)CC2)nn1	0.5 (≈ 1.04 µM)	8 (≈ 16.6 µM)	2 (≈ 4.15 µM)	8 (≈ 16.6 µM)	4 (≈ 8.31 µM)	32 (≈ 66.5 µM)	32 (≈ 66.5 µM)	–
C#CCO/N=C/c1cn(C2CCN(c3nc4c(cc3F)c(=O)c(C(=O)O)cn4C3CC3)CC2)nn1	0.5 (≈ 1.04 µM)	32 (≈ 66.7 µM)	1 (≈ 2.09 µM)	8 (≈ 16.7 µM)	4 (≈ 8.34 µM)	32 (≈ 66.7 µM)	32 (≈ 66.7 µM)	–
CCC(O)c1cn(C2CCN(c3nc4c(cc3F)c(=O)c(C(=O)O)cn4C3CC3)CC2)nn1 (stereo unspecified)	2 (≈ 4.38 µM)	> 32	2 (≈ 4.38 µM)	8 (≈ 17.5 µM)	1 (≈ 2.19 µM)	32 (≈ 70.1 µM)	32 (≈ 70.1 µM)	–
O=C(O)c1cn(C2CC2)c2cc(N3CCNCC3)c(F)cc2c1=O [CIPROFLOXACIN]	–	–	0.5 (≈ 1.51 µM)	1 (≈ 3.02 µM)	–	–	–	–
CN[C@H](CC(C)C)C(=O)N[C@H]1C(=O)N[C@@H](CC(N)=O)C(=O)N[C@H]2C(=O)N[C@H]3C(=O)N[C@H](C(=O)N[C@H](C(=O)O)c4cc(O)cc(O)c4-c4cc3ccc4O)[C@H](O)c3ccc(c(Cl)c3)Oc3cc2cc(c3O[C@@H]2O[C@H](CO)[C@@H](O)[C@H](O)[C@H]2O[C@H]2C[C@](C)(N)[C@H](O)[C@H](C)O2)Oc2ccc(cc2Cl)[C@H]1O [VANCOMYCIN]	–	–	–	0.5 (≈ 0.345 µM)	–	–	–	–
